Data from paper PMC7265341, “Quantifying CDK inhibitor selectivity in live cells” (Nature Communications, 2020).
Like-named read-outs stand apart in the source and are kept apart here.

Key:
CDK17/Cyclin Y = CDK17/Cyclin Y (Homo sapiens, UniProt Q00537); experiment: NanoBRET live-cell target engagement, CDK17-NanoLuc/Cyclin Y in HEK-293; assay type: binding; details: CDK17/Y, 10µM
CDK6/Cyclin D1 = CDK6/Cyclin D1 (Homo sapiens, UniProt Q00534); experiment: NanoBRET live-cell target engagement, NanoLuc-CDK6/Cyclin D1 in HEK-293; assay type: binding; details: CDK6/D1, 10µM
CDK1/Cyclin E1 = CDK1/Cyclin E1 (Homo sapiens, UniProt P06493); experiment: NanoBRET live-cell target engagement, CDK1-NanoLuc/Cyclin E1 in HEK-293; assay type: binding; details: CDK1/E1, 10µM
CDK20/Cyclin H = CDK20/Cyclin H (Homo sapiens, UniProt Q8IZL9); experiment: NanoBRET live-cell target engagement, NanoLuc-CDK20/Cyclin H in HEK-293; assay type: binding; details: CDK20/H, 10µM
CDK5/CDK5R1 = CDK5/CDK5R1 (Homo sapiens, UniProt Q00535); experiment: NanoBRET live-cell target engagement, CDK5-NanoLuc/CDK5R1 in HEK-293; assay type: binding; details: CDK5/CDK5R1, 10µM
CDK5/CDK5R1, sequence (Q00535 whole entry): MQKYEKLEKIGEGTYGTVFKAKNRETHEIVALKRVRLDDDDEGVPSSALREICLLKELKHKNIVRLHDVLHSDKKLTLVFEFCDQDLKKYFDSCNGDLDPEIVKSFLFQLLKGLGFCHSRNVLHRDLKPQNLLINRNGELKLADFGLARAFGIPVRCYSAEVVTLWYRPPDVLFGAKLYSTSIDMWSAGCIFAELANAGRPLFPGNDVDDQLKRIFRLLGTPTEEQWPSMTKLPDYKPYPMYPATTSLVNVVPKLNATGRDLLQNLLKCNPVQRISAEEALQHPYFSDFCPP
CDK5/CDK5R1, sequence (Q15078 whole entry partner): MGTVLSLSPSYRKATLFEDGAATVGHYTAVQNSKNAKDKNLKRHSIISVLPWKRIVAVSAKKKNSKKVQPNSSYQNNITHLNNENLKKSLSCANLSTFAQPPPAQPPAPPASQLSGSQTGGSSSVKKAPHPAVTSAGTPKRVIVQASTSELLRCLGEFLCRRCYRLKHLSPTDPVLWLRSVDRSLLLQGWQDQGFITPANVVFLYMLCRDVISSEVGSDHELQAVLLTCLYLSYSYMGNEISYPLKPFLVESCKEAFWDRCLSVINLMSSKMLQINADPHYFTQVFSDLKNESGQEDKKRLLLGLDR

CDK9/Cyclin K = CDK9/Cyclin K (Homo sapiens, UniProt P50750); experiment: NanoBRET live-cell target engagement, NanoLuc-CDK9/Cyclin K in HEK-293; assay type: binding; details: for inhibition at 10 µM: CDK9/K
CDK8/Cyclin C = CDK8/Cyclin C (Homo sapiens, UniProt P49336); experiment: NanoBRET live-cell target engagement, NanoLuc-CDK8/Cyclin C in HEK-293; assay type: binding; details: CDK8/C, 10µM
CDK8/Cyclin C, sequence (P49336 whole entry): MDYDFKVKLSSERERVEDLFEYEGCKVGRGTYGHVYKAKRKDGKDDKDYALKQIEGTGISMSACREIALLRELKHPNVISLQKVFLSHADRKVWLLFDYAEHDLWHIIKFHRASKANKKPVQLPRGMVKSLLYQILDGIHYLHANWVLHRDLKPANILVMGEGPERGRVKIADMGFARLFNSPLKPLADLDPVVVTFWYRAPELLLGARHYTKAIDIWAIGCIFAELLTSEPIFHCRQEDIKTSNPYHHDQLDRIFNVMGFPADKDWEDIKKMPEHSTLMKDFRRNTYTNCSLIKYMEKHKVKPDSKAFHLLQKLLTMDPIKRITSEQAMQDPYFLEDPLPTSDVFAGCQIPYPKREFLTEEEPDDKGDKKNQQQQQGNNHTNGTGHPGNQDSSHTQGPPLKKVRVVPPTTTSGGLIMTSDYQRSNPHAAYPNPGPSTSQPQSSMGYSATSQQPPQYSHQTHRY
CDK8/Cyclin C, sequence (P24863 whole entry partner): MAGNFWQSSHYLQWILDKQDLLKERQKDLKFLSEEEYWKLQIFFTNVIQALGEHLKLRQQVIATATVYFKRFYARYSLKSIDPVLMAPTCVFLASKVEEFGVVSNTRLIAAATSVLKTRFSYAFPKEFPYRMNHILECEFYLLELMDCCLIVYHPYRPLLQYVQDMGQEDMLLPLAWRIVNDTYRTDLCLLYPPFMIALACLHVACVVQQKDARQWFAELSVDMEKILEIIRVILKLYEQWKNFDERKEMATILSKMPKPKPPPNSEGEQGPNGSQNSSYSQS

CDK11B/Cyclin L2 = CDK11B/Cyclin L2 (Homo sapiens, UniProt P21127); experiment: NanoBRET live-cell target engagement, CDK11B-NanoLuc/Cyclin L2 in HEK-293; assay type: binding; details: CDK11b/L2, 10µM
CDK18/Cyclin Y = CDK18/Cyclin Y (Homo sapiens, UniProt Q07002); experiment: NanoBRET live-cell target engagement, CDK18-NanoLuc/Cyclin Y in HEK-293; assay type: binding; details: CDK18/Y, 10µM
CDK18/Cyclin Y, sequence (Q07002 whole entry): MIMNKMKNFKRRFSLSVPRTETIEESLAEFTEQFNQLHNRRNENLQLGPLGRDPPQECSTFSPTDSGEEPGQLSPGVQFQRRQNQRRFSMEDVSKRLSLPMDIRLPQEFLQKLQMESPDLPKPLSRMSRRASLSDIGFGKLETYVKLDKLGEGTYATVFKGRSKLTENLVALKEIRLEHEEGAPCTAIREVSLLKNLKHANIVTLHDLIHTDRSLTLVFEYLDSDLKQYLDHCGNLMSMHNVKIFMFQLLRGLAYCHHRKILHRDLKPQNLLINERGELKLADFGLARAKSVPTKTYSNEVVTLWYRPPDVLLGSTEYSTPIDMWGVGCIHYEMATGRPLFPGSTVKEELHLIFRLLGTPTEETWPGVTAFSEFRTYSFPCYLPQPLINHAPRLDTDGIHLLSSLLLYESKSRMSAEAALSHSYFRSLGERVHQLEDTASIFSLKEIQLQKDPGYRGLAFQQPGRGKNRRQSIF
CDK18/Cyclin Y, sequence (Q8ND76 whole entry partner): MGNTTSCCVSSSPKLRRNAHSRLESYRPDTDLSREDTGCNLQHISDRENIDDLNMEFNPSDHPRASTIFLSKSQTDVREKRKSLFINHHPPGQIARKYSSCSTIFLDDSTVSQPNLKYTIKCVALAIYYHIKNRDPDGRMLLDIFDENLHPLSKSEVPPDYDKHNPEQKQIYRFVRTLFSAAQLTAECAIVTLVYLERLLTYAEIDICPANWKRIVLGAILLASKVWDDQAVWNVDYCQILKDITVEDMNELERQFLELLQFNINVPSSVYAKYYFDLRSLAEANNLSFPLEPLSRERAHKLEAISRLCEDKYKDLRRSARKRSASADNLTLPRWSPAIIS

CDK14/Cyclin Y = CDK14/Cyclin Y (Homo sapiens, UniProt O94921); experiment: NanoBRET live-cell target engagement, CDK14-NanoLuc/Cyclin Y in HEK-293; assay type: binding; details: CDK14/Y, 10µM
CDK7 = CDK7 (Homo sapiens, UniProt P50613); experiment: NanoBRET live-cell target engagement, NanoLuc-CDK7 in HEK-293; assay type: binding; details: CDK7, 10µM
CDK7, sequence (P50613 whole entry): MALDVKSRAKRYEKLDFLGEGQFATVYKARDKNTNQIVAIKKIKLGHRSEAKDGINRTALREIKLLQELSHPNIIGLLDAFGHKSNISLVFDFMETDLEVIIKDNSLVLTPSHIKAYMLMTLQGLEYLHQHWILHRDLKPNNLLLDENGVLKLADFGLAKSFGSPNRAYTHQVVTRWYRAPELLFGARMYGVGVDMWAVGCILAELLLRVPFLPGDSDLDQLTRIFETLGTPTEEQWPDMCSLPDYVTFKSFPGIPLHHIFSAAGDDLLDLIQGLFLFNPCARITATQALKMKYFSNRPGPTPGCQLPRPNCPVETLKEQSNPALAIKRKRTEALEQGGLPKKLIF

CDK19/Cyclin C = CDK19/Cyclin C (Homo sapiens, UniProt Q9BWU1); experiment: NanoBRET live-cell target engagement, NanoLuc-CDK19/Cyclin C in HEK-293; details: 10µM
CDK2/Cyclin E1 = CDK2/Cyclin E1 (Homo sapiens, UniProt P24941); experiment: NanoBRET live-cell target engagement, CDK2-NanoLuc/Cyclin E1 in HEK-293; assay type: binding; details: CDK2/E1, 10µM
CDK13/Cyclin K = CDK13/Cyclin K (Homo sapiens, UniProt Q14004); experiment: NanoBRET live-cell target engagement, CDK13-NanoLuc/Cyclin K in HEK-293; assay type: binding; details: CDK13/K, 10µM
CDK16/Cyclin Y = CDK16/Cyclin Y (Homo sapiens, UniProt Q00536); experiment: NanoBRET live-cell target engagement, CDK16-NanoLuc/Cyclin Y in HEK-293; assay type: binding; details: CDK16/Y, 10µM
CDK3/Cyclin E1 = CDK3/Cyclin E1 (Homo sapiens, UniProt Q00526); experiment: NanoBRET live-cell target engagement, CDK3-NanoLuc/Cyclin E1 in HEK-293; assay type: binding; details: CDK3/E1, 10µM
CDK3/Cyclin E1, sequence (Q00526 whole entry): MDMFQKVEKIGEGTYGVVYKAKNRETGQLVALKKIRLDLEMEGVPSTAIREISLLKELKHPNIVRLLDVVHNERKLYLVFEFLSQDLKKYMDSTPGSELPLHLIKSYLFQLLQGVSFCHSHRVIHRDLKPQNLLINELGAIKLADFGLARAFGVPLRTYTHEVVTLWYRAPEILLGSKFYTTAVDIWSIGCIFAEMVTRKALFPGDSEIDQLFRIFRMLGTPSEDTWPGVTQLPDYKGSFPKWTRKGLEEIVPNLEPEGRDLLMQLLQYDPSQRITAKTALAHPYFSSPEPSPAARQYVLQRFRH
CDK3/Cyclin E1, sequence (P24864 whole entry partner): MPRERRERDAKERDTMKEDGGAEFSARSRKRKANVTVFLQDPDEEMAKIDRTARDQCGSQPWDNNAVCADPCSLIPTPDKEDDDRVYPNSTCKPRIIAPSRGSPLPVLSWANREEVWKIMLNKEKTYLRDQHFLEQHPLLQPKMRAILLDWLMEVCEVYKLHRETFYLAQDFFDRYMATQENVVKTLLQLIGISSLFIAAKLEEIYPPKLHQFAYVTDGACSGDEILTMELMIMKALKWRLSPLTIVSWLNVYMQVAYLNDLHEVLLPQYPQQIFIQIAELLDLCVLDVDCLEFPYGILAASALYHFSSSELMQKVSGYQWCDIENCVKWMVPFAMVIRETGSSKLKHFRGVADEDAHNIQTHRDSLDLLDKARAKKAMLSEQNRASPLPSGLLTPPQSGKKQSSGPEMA

CDK15/Cyclin Y = CDK15/Cyclin Y (Homo sapiens, UniProt Q96Q40); experiment: NanoBRET live-cell target engagement, NanoLuc-CDK15/Cyclin Y in HEK-293; assay type: binding; details: CDK15/Y, 10µM
CDK15/Cyclin Y, sequence (Q96Q40 whole entry): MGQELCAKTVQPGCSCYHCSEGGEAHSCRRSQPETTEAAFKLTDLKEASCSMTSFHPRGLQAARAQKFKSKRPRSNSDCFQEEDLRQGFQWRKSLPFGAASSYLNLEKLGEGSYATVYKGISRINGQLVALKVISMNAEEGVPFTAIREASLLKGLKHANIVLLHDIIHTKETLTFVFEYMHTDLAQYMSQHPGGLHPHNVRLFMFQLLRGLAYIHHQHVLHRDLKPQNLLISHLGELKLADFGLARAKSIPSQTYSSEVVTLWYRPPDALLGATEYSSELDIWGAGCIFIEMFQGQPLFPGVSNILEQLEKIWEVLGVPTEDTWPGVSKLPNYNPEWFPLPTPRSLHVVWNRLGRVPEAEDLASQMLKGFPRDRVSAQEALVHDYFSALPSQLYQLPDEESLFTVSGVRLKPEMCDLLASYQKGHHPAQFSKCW
CDK15/Cyclin Y, sequence (Q8ND76 whole entry partner): as the sequence (Q8ND76 whole entry partner) above

CDK10/Cyclin L2 = CDK10/Cyclin L2 (Homo sapiens, UniProt Q15131); experiment: NanoBRET live-cell target engagement, CDK10-NanoLuc/Cyclin L2 in HEK-293; details: 10µM
CDK10/Cyclin L2, sequence (Q15131 whole entry): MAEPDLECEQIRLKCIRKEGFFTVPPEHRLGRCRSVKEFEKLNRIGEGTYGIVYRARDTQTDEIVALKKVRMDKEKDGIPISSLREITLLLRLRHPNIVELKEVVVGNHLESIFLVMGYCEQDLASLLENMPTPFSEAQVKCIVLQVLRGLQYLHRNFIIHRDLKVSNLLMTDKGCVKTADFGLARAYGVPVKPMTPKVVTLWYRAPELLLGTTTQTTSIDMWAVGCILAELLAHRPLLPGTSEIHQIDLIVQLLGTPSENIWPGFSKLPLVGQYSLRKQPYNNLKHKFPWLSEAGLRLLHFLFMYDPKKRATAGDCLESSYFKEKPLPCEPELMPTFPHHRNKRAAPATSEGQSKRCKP

CDK12/Cyclin K = CDK12/Cyclin K (Homo sapiens, UniProt Q9NYV4); experiment: NanoBRET live-cell target engagement, CDK12-NanoLuc/Cyclin K in HEK-293; assay type: binding; details: CDK12/K, 10µM
CDK4/Cyclin D1 = CDK4/Cyclin D1 (Homo sapiens, UniProt P11802); experiment: NanoBRET live-cell target engagement, NanoLuc-CDK4/Cyclin D1 in HEK-293; assay type: binding; details: CDK4/D1, 10µM
CDK4/Cyclin D1, sequence (P11802 whole entry): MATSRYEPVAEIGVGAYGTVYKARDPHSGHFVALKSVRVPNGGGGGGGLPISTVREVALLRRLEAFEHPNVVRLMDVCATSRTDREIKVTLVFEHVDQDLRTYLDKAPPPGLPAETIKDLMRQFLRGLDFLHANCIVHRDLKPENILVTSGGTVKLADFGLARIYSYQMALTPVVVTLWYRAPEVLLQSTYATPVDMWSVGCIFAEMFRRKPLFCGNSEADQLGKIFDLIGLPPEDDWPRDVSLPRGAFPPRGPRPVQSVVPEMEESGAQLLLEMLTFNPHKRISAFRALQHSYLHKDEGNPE
CDK4/Cyclin D1, sequence (P24385 whole entry partner): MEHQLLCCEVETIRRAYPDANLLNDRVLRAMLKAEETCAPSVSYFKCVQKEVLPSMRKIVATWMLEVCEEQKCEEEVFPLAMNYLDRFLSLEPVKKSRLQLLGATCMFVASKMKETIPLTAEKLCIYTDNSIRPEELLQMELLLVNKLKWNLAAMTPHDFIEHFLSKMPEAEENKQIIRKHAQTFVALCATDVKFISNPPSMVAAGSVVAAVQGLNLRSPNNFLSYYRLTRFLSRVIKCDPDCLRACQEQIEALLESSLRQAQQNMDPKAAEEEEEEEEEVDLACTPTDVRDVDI

[1] = average of replicates, read-out: Inhibition at 10µM (%) Average
[2] = read-out: Inhibition at 10µM (%) Replicate 1
[3] = read-out: Inhibition at 10µM (%) Replicate 2

COc1cc(F)ccc1-c1cc(Nc2cc(CS(C)(=N)=O)ccn2)ncc1F (stereo not drawn) [BAY-1251152]
inhibition at 10 µM (CDK17/Cyclin Y; [1]): 59.9%
inhibition at 10 µM (CDK17/Cyclin Y; [2]): 56.6%
inhibition at 10 µM (CDK17/Cyclin Y; [3]): 63.1%
inhibition at 10 µM (CDK6/Cyclin D1; [1]): 86.3%
inhibition at 10 µM (CDK6/Cyclin D1; [2]): 83.5%
inhibition at 10 µM (CDK6/Cyclin D1; [3]): 89.1%
inhibition at 10 µM (CDK1/Cyclin E1; [1]): 56%
inhibition at 10 µM (CDK1/Cyclin E1; [2]): 55.2%
inhibition at 10 µM (CDK1/Cyclin E1; [3]): 56.8%
inhibition at 10 µM (CDK20/Cyclin H; [2]): 8.6%
inhibition at 10 µM (CDK20/Cyclin H; [3]): 8.9%
inhibition at 10 µM (CDK5/CDK5R1; [1]): 56.6%
inhibition at 10 µM (CDK5/CDK5R1; [2]): 44.9%
inhibition at 10 µM (CDK5/CDK5R1; [3]): 68.3%
inhibition at 10 µM (CDK9/Cyclin K; [1]): 99.8%
inhibition at 10 µM (CDK9/Cyclin K; [2]): 99.5%
inhibition at 10 µM (CDK9/Cyclin K; [3]): 100%
CDK9 Occupancy Data, Plasmid (CDK9/Cyclin K; LOG10([BAY-1251152]) (LOG10(µM)) 0.045757): 99.1453
CDK9 Occupancy Data, Plasmid (CDK9/Cyclin K; LOG10([BAY-1251152]) (LOG10(µM)) 0.522879): 96.1111
CDK9 Occupancy Data, Plasmid (CDK9/Cyclin K; LOG10([BAY-1251152]) (LOG10(µM)) 1): 96.4103
CDK9 Occupancy Data, Plasmid (CDK9/Cyclin K; LOG10([BAY-1251152]) (LOG10(µM)) -0.43136): 97.094
CDK9 Occupancy Data, Plasmid (CDK9/Cyclin K; LOG10([BAY-1251152]) (LOG10(µM)) -0.90849): 95.641
CDK9 Occupancy Data, Plasmid (CDK9/Cyclin K; LOG10([BAY-1251152]) (LOG10(µM)) -1.38561): 91.9658
CDK9 Occupancy Data, Plasmid (CDK9/Cyclin K; LOG10([BAY-1251152]) (LOG10(µM)) -1.86273): 87.906
CDK9 Occupancy Data, Plasmid (CDK9/Cyclin K; LOG10([BAY-1251152]) (LOG10(µM)) -2.33985): 67.9487
CDK9 Occupancy Data, Plasmid (CDK9/Cyclin K; LOG10([BAY-1251152]) (LOG10(µM)) -2.81697): 29.4872
CDK9 Occupancy Data, Plasmid (CDK9/Cyclin K; LOG10([BAY-1251152]) (LOG10(µM)) -3.29409): 6.838
CDK9 Occupancy Data, Plasmid (CDK9/Cyclin K; LOG10([BAY-1251152]) (LOG10(µM)) -3.77121): 1.421e-14
inhibition at 10 µM (CDK8/Cyclin C; [1]): 9.9%
inhibition at 10 µM (CDK8/Cyclin C; [2]): 13.9%
inhibition at 10 µM (CDK8/Cyclin C; [3]): 5.9%
inhibition at 10 µM (CDK11B/Cyclin L2; [1]): 33.9%
inhibition at 10 µM (CDK11B/Cyclin L2; [2]): 35.6%
inhibition at 10 µM (CDK11B/Cyclin L2; [3]): 32.1%
inhibition at 10 µM (CDK18/Cyclin Y; [1]): 46.2%
inhibition at 10 µM (CDK18/Cyclin Y; [2]): 38.7%
inhibition at 10 µM (CDK18/Cyclin Y; [3]): 53.8%
inhibition at 10 µM (CDK14/Cyclin Y; [1]): 19.5%
inhibition at 10 µM (CDK14/Cyclin Y; [2]): 16.7%
inhibition at 10 µM (CDK14/Cyclin Y; [3]): 22.4%
inhibition at 10 µM (CDK7; [1]): 58.7%
inhibition at 10 µM (CDK7; [2]): 59.8%
inhibition at 10 µM (CDK7; [3]): 57.6%
inhibition at 10 µM (CDK19/Cyclin C; read-out: Inhibition at 10µM (%) Average, CDK19/C, average of replicates): 21.3%
inhibition at 10 µM (CDK19/Cyclin C; read-out: Inhibition at 10µM (%) Replicate 1, CDK19/C): 28.8%
inhibition at 10 µM (CDK19/Cyclin C; read-out: Inhibition at 10µM (%) Replicate 2, CDK19/C): 13.7%
inhibition at 10 µM (CDK2/Cyclin E1; [1]): 72.3%
inhibition at 10 µM (CDK2/Cyclin E1; [2]): 71%
inhibition at 10 µM (CDK2/Cyclin E1; [3]): 73.6%
inhibition at 10 µM (CDK13/Cyclin K; [1]): 23.2%
inhibition at 10 µM (CDK13/Cyclin K; [2]): 23.5%
inhibition at 10 µM (CDK13/Cyclin K; [3]): 22.8%
inhibition at 10 µM (CDK16/Cyclin Y; [2]): 62.8%
inhibition at 10 µM (CDK16/Cyclin Y; [3]): 66.7%
inhibition at 10 µM (CDK3/Cyclin E1; [1]): 77.9%
inhibition at 10 µM (CDK3/Cyclin E1; [2]): 75.8%
inhibition at 10 µM (CDK3/Cyclin E1; [3]): 80%
inhibition at 10 µM (CDK15/Cyclin Y; [1]): 40%
inhibition at 10 µM (CDK15/Cyclin Y; [2]): 31.9%
inhibition at 10 µM (CDK15/Cyclin Y; [3]): 48.2%
inhibition at 10 µM (CDK10/Cyclin L2; read-out: Inhibition at 10µM (%) Average, CDK10/L2, average of replicates): 45%
inhibition at 10 µM (CDK10/Cyclin L2; read-out: Inhibition at 10µM (%) Replicate 1, CDK10/L2): 38.6%
inhibition at 10 µM (CDK10/Cyclin L2; read-out: Inhibition at 10µM (%) Replicate 2, CDK10/L2): 51.4%
inhibition at 10 µM (CDK12/Cyclin K; [1]): 25.3%
inhibition at 10 µM (CDK12/Cyclin K; [2]): 33%
inhibition at 10 µM (CDK12/Cyclin K; [3]): 17.7%
inhibition at 10 µM (CDK4/Cyclin D1; [1]): 79.7%
inhibition at 10 µM (CDK4/Cyclin D1; [2]): 75.9%
inhibition at 10 µM (CDK4/Cyclin D1; [3]): 83.4%
